In patent US20070245431A1, “POLYUNSATURATED FATTY ACID PRODUCTION IN HETEROLOGOUS ORGANISMS USING PUFA POLYKETIDE SYNTHASE SYSTEMS” (priority 2006, published 2007):

Tests used:
[1] = test system: acyl-CoA synthetases; test: In vitro activity assay of Schizochytrium FAS-KO cell free homogenate with Triacsin C (HIP extraction, normal phase TLC); format: biochemical; details: Triacsin C 0, 25, 100 or 200 uM, 10 minutes, then ATP and Mg+2, additional 20 minutes; effect at higher concentrations
Description: An example of a protocol for preparation of cell free homogenates (CFH) from the cell wall deficient strains of Schizochytrium is as follows. Cells were grown in A50-3 medium and then diluted into M2B medium. The media used for growing the KO strains were supplemented with the appropriate fatty acid. Cells were grown to an OD600 nm of >˜2.5 and <˜5 in the M2B media. Cells in 50 mL of culture medium were collected by centrifugation (table top centrifuge—˜1200 rpm×4 minutes) in 50 mL plastic tubes. The supernatant was decanted and the cells resuspended 5 mL Buffer A (100 mM Phosphate pH 7.2, 10% (w/v) glycerol, 1 mM EDTA and 2 mM DTT) and centrifuged as before. The supernatant was discarded and the cells resuspended in ice cold 5 mL Buffer A. The suspension was sonicated (Ultrasonic Processor Model GE130 with microtip, Pulser at 2 seconds, ˜1 Watt power setting) with tube on ice for 1.5 minutes. The sample was checked by microscopy to ensure that all of the cells were broken. The CFH was aliquoted in 200 uL portions into 0.5 mL PCR tubes with caps and frozen by dropping into liquid N2. Samples were stored at −74° C. until needed.
An example of a protocol for in vitro activity assays of both FAS and PUFA synthase activities is as follows. […]

[2] = test system: yeast; test: Fatty acid profile (GC of FAMEs) of yeast strains grown without or with cerulenin (FAS inhibition); format: cell-based, Saccharomyces cerevisiae
Description: The present inventors tested the effects of cerulenin on fatty acid profiles of the strains of yeast described in Example 8 as a model of the concept of reduction of FAS activity. The yeast described in Example 9, which also contained an acyl CoA-synthetase, were additionally tested in this system, to determine whether the effects of the two strategies would additively or synergistically increase PUFA production.
Initial experiments indicated the maximum effect (i.e., as an increase in PUFAs as a percentage of the total fatty acid profile) was obtained at a concentration of 4 uM cerulenin. The cerulenin was added 4 hours after transfer to the galactose induction medium. Cells were harvested 19 hr after transfer to induction medium, freeze dried, FAMES prepared and analyzed by GC.
The yeast strains tested were: • Strain 5.5 contained the PUFA synthase genes (sOrfA, sOrfB, OrfC and Het I), as described in Example 8 above; and • Strain 5.6 contained the PUFA synthase gene set of Strain 5.5, plus the ScACoAS-1 (SEQ ID NO:82), as described in Example 9 above.
Referring to Table 2, “0 Cer” indicates cerulenin was not added, and “4 uM Cer” indicates the media was made to 4 uM cerulenin 4 hours after transfer to the induction medium). Each strain was evaluated for fatty acid production in the presence and absence of the cerulenin, to evaluate the effect of the inhibition of the FAS pathway on PUFA production. […] The values are given as a percentage of the total fatty acids detected. DHA and DPAn-6, which are the products of the Schizochytrium PUFA PKS system, were the only PUFAs present in the profiles. FIGS. 9 and 10 illustrate the amount of DHA (FIG. 9) or DHA and DPAn-6 (FIG. 10; white bars are DHA; black bars are DHA+DPAn-6) produced by the yeast, as a percentage of total FAME.

[3] = test system: Schizochytrium; test: Knock out of the DAGAT gene in Schizochytrium, lipid profile; format: cell-based; details: inactivation of the DAGAT gene in Schizochytrium

CCC/C=C/C/C=C/C=C/C=N/NN=O [Triacsin C]
loss of radiolabel from the FFA band [1]: blocked the loss of radiolabel from the FFA band

C/C=C/C/C=C/CCC(=O)[C@H]1O[C@H]1C(N)=O [cerulenin]
DHA level, of total fatty acids ([2]; cells expressing both the PUFA synthase and ScACoAS-1 genes grown in 4 uM cerulenin (4.1% without)): 8.2%
DHA level ([2]; cells with just the PUFA synthase system grown in 4 uM cerulenin (1.2% without)): 3.7%
concentration giving the maximum effect (increase in PUFAs as a percentage of the total fatty acid profile) ([2]; initial experiments): 4 µM

B1: DAGAT: Schizochytrium diacylglycerol acyltransferase, SEQ ID NO:100/101 (protein, listed as Schizochytrium sp.)
chain: MERPQAQASPARSEARRRRGDRSKGFADEDGETSVNTPNGMQTPYSTSMGSVSSYSSSGDYAMSEAEGSEVDPADDRMGDSIGSKPSSSSVTGRRRLTQEERDYFLRLEKEWREEDAWADQPGSWYSMLAWMPVLIGLRVFNVLLSIAFWPVSFVARVFFGKKIHTVSFWDVPLSRRKQTAVVLLFVMLLPMVVVVYSWTLVLLLFPLTTFPTLCYMVWIIYVDKSPETGSRRPFLRYWKMWRHFANYFPLRLIRTTPLDSRRKYVFCYHPHGIISLGAFGNFATDSTGFSRKFPGIDLRVLTLALNFYCPLLREFLLYLGLCSAAKKSCNQILQRGPGSAIMLVVGGAAESLDSQPGTYRLTLGRKGFVRVALDNGADLVPVLAFGENDVFDTVYLPPNSWARNVQEFVRKKLGFATPIFSGRGIFQYNMGLMPHRRPIIVVVGKPIKMPKIPDELKGRALSTTAEGVALVDKYHEKYVKALRELWNLYKERWAVHRQGSLLIQK
reduction in TAG [3]: ~90%
reduction in mg FAME/gm biomass [3]: ~80%
